Laboratory results from US9321750B2, “ROR modulators and their uses” (INNOV17 LLC, priority 2012, dated 2016).

Tests used:
[1] = system: IL-17A; assay: TH17 cytokine inhibition as measured by ELISA: IL-17A; type: cell-based; conditions: 120 h; human TH17 cells, 5 days differentiation, ELISA of supernatant
Procedure: (§1) Peripheral blood mononuclear cells (PBMCs) were sourced from freshly prepared leukocyte enriched plasma (buffy coat) from healthy volunteers from which PBMCs were isolated by density gradient centrifugation using Ficoll-Paque™ PLUS (GE Healthcare). Naïve CD4+ T cells were isolated using the Naïve CD4+ T cell Isolation Kit II (Miltenyi Biotec) as per manufacturer's instructions. CD4+ T cells were plated at 5×10^4 cells/well in 96 well plates pre-coated with immobilized human (h)-αCD3 antibody (eBioscience) then differentiated to TH17 cells using h-αCD28, h-αIFNγ, h-αIL4, h-IL6, h-IL23, h-IL1β, h-TGFβ1 (eBioscience) and maintained in a cell culture incubator at 37° C. with 5% CO2 in TexMACS Medium (Miltenyi Biotec) supplemented with 1% Penicillin/Streptomycin (Lonza) over 5 days.
(§2) Human CD4+ T cells were differentiated to TH17 cells as described in the presence or absence of various concentrations of compounds in a final concentration of 0.1% DMSO in TexMACS medium. Supernatants were collected and stored at −20° C. until they were to be assayed for IL-17A, IL-17F, IL-17AF, IL-21 and/or IL-22 levels as determined by Ready-Set-Go ELISA kits (eBioscience) as per manufacturer's instructions. Endpoint absorbance was read at 450 nm and 570 nm according to manufacturer's instructions (eBioscience) using a microplate reader (Perkin Elmer). The percentage of cytokine inhibition was calculated with reference to DMSO treated cells and the IC50s were determined by GraphPad Prism software and presented in the table below.

[2] = system: IL-17F; assay: TH17 cytokine inhibition as measured by ELISA: IL-17F; type: cell-based; conditions: 120 h; human TH17 cells, 5 days differentiation, ELISA of supernatant
Procedure: as §1, §2

[3] = system: IL-22; assay: TH17 cytokine inhibition as measured by ELISA: IL-22; type: cell-based; conditions: 120 h; human TH17 cells, 5 days differentiation, ELISA of supernatant
Procedure: as §1, §2

[4] = TH17 cell viability (Prestoblue); type: cell-based; parameters: concentration or dose not given beside the values; conditions: human; percentage of DMSO treated cells; read-out: % viability of compound treated TH17 cells
Procedure: as §1
Cells were assayed for viability in the presence or absence of compound using Prestoblue® Cell Viability Reagent (Life Technologies) as per manufacturer's instructions after 30 minutes incubation of TH17 cells with reagent. Absorbance was measured at 570 nm and 600 nm using a microplate reader (Perkin Elmer) and data were analyzed as per manufacturer's instructions. Cell viability was expressed as a percentage of DMSO treated cells.

[5] = system: TH17 cells; assay: TH17 cellular proliferation (Prestoblue); type: cell-based; conditions: Homo sapiens, 120 h; 3 μM compound, after 5 day TH17 differentiation, relative to DMSO treated TH17 cells; read-out: % change in TH17 cell number
Procedure: as §1
Cellular proliferation was assessed in the presence or absence of 3 μM compound using Prestoblue® Cell Viability Reagent (Life Technologies) as per manufacturer's instructions using absorbance as the output measured by a microplate reader (Perkin Elmer) after 30 minutes of incubation of cells and reagent. A standard curve developed by plotting varying cell numbers versus absorbance was used to assess differences in cellular proliferation between compound treated or untreated cells after the 5 day TH17 differentiation period.

[6] = system: IL-17A; assay: Real-time qRT-PCR in TH17 cells: IL-17A gene expression; type: cell-based, human; parameters: key: A: No change in gene expression observed relative to DMSO treated Th17 cells; B: Decreased gene expression observed relative to DMSO treated Th17 cells; C: Increased gene expression observed relative to DMSO treated Th17 cells
Procedure: as §1
(§3) RNA was isolated from TH17 cells and cDNA was synthesized using the Verso cDNA kit (Thermo Scientific) as per manufacturer's instructions. IL-17A, IL-17F, IL-21, IL-22, G-CSF, IL-23R and FOXP3 gene expression were determined for compound treated and untreated TH17 cell samples using Solaris qPCR Gene expression assays (Thermo Scientific) with an iCycler iQ Real-Time PCR Detection System (Bio-Rad). Individual gene expression was normalized to a panel of six reference genes (ACTB, TBP, HPRT1, PGK1, TFRC and PPIA) (Thermo Scientific) and analyzed by REST 2009 (Qiagen) in accordance to MIQE guidelines (Bustin et al. (2009) Clin. Chem, 55:611-622). The effects of compounds on TH17 cytokine mRNA levels are presented as fold change in gene expression of compound treated TH17 cells relative to DMSO treated cells in the table below.

[7] = system: IL-17F; assay: Real-time qRT-PCR in TH17 cells: IL-17F gene expression; type: cell-based, human; parameters: key: A: No change in gene expression observed relative to DMSO treated Th17 cells; B: Decreased gene expression observed relative to DMSO treated Th17 cells; C: Increased gene expression observed relative to DMSO treated Th17 cells
Procedure: as §1, §3

[8] = system: IL-22; assay: Real-time qRT-PCR in TH17 cells: IL-22 gene expression; type: cell-based, human; parameters: key: A: No change in gene expression observed relative to DMSO treated Th17 cells; B: Decreased gene expression observed relative to DMSO treated Th17 cells; C: Increased gene expression observed relative to DMSO treated Th17 cells
Procedure: as §1, §3

[9] = system: IL-21; assay: Real-time qRT-PCR in TH17 cells: IL-21 gene expression; type: cell-based, human; parameters: key: A: No change in gene expression observed relative to DMSO treated Th17 cells; B: Decreased gene expression observed relative to DMSO treated Th17 cells; C: Increased gene expression observed relative to DMSO treated Th17 cells
Procedure: as §1, §3

[10] = system: IL-23R; assay: Real-time qRT-PCR in TH17 cells: IL-23R gene expression; type: cell-based, human; parameters: key: A: No change in gene expression observed relative to DMSO treated Th17 cells; B: Decreased gene expression observed relative to DMSO treated Th17 cells; C: Increased gene expression observed relative to DMSO treated Th17 cells
Procedure: as §1, §3

[11] = system: FOXP3; assay: Real-time qRT-PCR in TH17 cells: FOXP3 gene expression; type: cell-based, human; parameters: key: A: No change in gene expression observed relative to DMSO treated Th17 cells; B: Decreased gene expression observed relative to DMSO treated Th17 cells; C: Increased gene expression observed relative to DMSO treated Th17 cells
Procedure: as §1, §3

[12] = molecular target: T1, RORγ LBD (Homo sapiens (Human), UniProt P51449); assay: TR-FRET co-activator D22 interaction with RORγ LBD; type: biochemical
T1 sequence (P51449 269-508): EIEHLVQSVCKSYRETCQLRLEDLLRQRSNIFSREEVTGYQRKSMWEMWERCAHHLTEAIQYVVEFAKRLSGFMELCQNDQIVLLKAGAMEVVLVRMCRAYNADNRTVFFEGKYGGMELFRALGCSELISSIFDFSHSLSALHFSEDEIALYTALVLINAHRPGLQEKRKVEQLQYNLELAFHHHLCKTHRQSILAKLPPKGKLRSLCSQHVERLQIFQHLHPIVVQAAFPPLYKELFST
Excerpt: (§4) The Time-Resolved Fluorescence Resonance Energy Transfer (TR-FRET) assay kit (Life Technologies) was used to measure compound efficacy to disrupt or enhance ligand-mediated interaction of the co-activator and co-repressor peptides with the purified GST-tagged (i) RORγ LBD or (ii) […]. The RORγ LBD and RORα LBD each have a basal level of interaction with the co-activator D22 or co-repressor NCoR1-D2 in the absence of ligand, thus it is possible to identify compounds that inhibit or induce RORγ and/or RORα co-activator/co-repressor interactions, thus determining RORα, RORγ, or RORα/RORγ compound selectivity. The assay was performed as per manufacturer's instructions and TR-FRET was assessed 2 and 20 hours post-assay initiation. Compounds were identified to (i) have no impact on either co-activator displacement or […] from the assessed LBD (ii) promote co-activator displacement from the assessed LBD (iii) promote co-repressor recruitment to the assessed LBD or (iv) concurrently promote co-activator displacement from the assessed LBD and co-repressor recruitment to the assessed LBD.

[13] = molecular target: T1, RORγ LBD; assay: TR-FRET co-repressor NCoR1-D2 interaction with RORγ LBD; type: biochemical
Excerpt: as §4

[14] = molecular target: T2, RORα LBD (Homo sapiens (Human), UniProt P35398); assay: TR-FRET co-activator D22 interaction with RORα LBD; type: biochemical
T2 sequence (P35398 272-510): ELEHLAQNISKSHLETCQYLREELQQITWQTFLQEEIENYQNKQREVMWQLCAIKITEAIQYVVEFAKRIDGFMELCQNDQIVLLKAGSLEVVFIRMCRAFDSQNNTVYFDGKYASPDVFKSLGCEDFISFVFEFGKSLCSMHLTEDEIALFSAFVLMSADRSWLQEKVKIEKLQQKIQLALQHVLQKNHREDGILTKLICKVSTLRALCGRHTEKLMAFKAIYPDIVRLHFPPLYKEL
Excerpt: as §4

[15] = molecular target: T2, RORα LBD; assay: TR-FRET co-repressor NCoR1-D2 interaction with RORα LBD; type: biochemical
Excerpt: as §4

[16] = system: IL-17AF; assay: TH17 cytokine inhibition as measured by ELISA: IL-17AF; type: cell-based; conditions: 120 h; human TH17 cells, 5 days differentiation, ELISA of supernatant
Procedure: as §1, §2

[17] = molecular target: T1, RORγ LBD; assay: RORγ LBD binding (Human RORγ Assay System, INDIGO Biosciences); conditions: 0.5% DMSO
Procedure: Compound binding to the human RORγ LBD was assessed using the Human RORγ Assay System (INDIGO Biosciences Inc.) as per manufacturer's instructions.

[18] = 2 hr, read-out: RORγ EC50 D22 co-activator displacement 2 hr
[19] = 20 hr, read-out: RORγ EC50 D22 co-activator displacement 20 hr
[20] = 2 hr, read-out: RORγ EC50 NCoR1-D2 co-repressor recruitment 2 hr
[21] = 20 hr, read-out: RORγ EC50 NCoR1-D2 co-repressor recruitment 20 hr
[22] = 2 hr, read-out: RORα EC50 D22 co-activator displacement 2 hr
[23] = 20 hr, read-out: RORα EC50 D22 co-activator displacement 20 hr
[24] = 2 hr, read-out: RORα EC50 NCoR1-D2 co-repressor recruitment 2 hr
[25] = 20 hr, read-out: RORα EC50 NCoR1-D2 co-repressor recruitment 20 hr

| Structure (SMILES) | IC50 [1] [µM] | IC50 [2] [µM] | viability [4] [%] | inhibition at 3 µM [5] [%] | EC50 [12, 18] [µM] | EC50 [12, 19] [µM] | EC50 [13, 20] [µM] | EC50 [13, 21] [µM] | EC50 [14, 22] [µM] | EC50 [14, 23] [µM] | EC50 [15, 24] [µM] | EC50 [15, 25] [µM] | also measured |
| --- | --- | --- | --- | --- | --- | --- | --- | --- | --- | --- | --- | --- | --- |
| CS(=O)(=O)Nc1ccc2c(c1)CCC(=O)N2Cc1ccc(C(O)(C(F)(F)F)C(F)(F)F)cc1 [Example 6, N-(1-(4-(1,1,1,3,3,3-hexafluoro-2-hydroxypropan-2-yl)benzyl)-2-oxo-1,2,3,4-tetrahydroquinolin-6-yl)methanesulfonamide] | < 10 | < 10 | > 80 | ≤ 50 | > 30 | > 30 | < 30 | > 30 | < 30 | < 30 | > 30 | > 30 | IC50 [3]: < 10 µM; Fold change in mRNA level of compound treated TH17 cells relative to DMSO treated cells IL-17A [6]: A; Fold change in mRNA level of compound treated TH17 cells relative to DMSO treated cells IL-17F [7]: B; Fold change in mRNA level of compound treated TH17 cells relative to DMSO treated cells IL-22 [8]: A; Fold change in mRNA level of compound treated TH17 cells relative to DMSO treated cells IL-21 [9]: A; Fold change in mRNA level of compound treated TH17 cells relative to DMSO treated cells IL-23R [10]: A; Fold change in mRNA level of compound treated TH17 cells relative to DMSO treated cells FOXP3 [11]: A |
| CC(=O)Nc1ccc2c(c1)CCC(=O)N2Cc1ccc(C(O)(C(F)(F)F)C(F)(F)F)cc1 [Example 3, N-(1-(4-(1,1,1,3,3,3-hexafluoro-2-hydroxypropan-2-yl)benzyl)-2-oxo-1,2,3,4-tetrahydroquinolin-6-yl)acetamide] | < 10 | < 10 | > 80 | ≤ 50 | > 30 | < 30 | > 30 | < 30 | > 30 | > 30 | > 30 | > 30 | IC50 [16]: > 10 µM; IC50 [17]: > 10 µM |
